From patent publication US6881420B2 (Teva Pharmaceutical Industries Ltd., priority 2000, dated 2005)

How the values were obtained:
[1] = Relative oral, non-gastric retention bioavailability of irinotecan and SN-38 derived from literature; assay type: in vivo; conditions: human, blood (bloodstream); oral non-gastric retention relative to intravenous; read-out: Calculated Relative Bioavailabilty of Lactone [formula]
Source text: Quantity “A” is the total area under the bloodstream concentration curve over time.
ATotal=ALactone+ACarboxylate is the sum of the areas under the curve of lactone and carboxylate forms of the species.

[2] = Systemic delivery of irinotecan and SN-38 after GRDS tablet versus i.v. in the beagle dog; conditions: irinotecan in gastric retention dosage form, oral
Procedure: A plot of plasma concentration against time allows calculation of the area under the curves and the relative bioavailability of the various forms of the drug.
Prior to the study, an adequate amount (5-10 ml) of whole blood is drawn from each dog. The blood is used to prepare the standard calibration reference curve. At the study, the foreleg (right or left, as deemed appropriate by the animal handler), is shaved using an electric shaver, and the area cleansed with a chlorhexidine swab. A permanent in-dwelling polyethylene catheter is inserted using a 23 gauge needle in the cephalic vein in the foreleg of each dog and taped in place to allow for periodic blood sampling over 12 hours. […]
At each time point, 2.0 ml blood is removed by syringe and then placed into a pre-labeled heparinized test tube. […] The concentration of the components are measured using literature HPLC methods.
The dogs are fasted overnight for a period of at least 12 hours at which time they receive a single mixed meal of solid food and liquid nutrients. 250 grams of bite-size commercial dog chow (Bonzo Feed®) are measured and placed in a feeding dish. […] The food remaining in the dish is measured and the difference from the original 250 grams is recorded as the amount of food consumed. […]
Two hours after the meal, the dog is dosed with the test tablet. […] The methanol samples are analyzed by HPLC. […]

topoisomerase I = biological target: T1, topoisomerase I (Homo sapiens, UniProt P11387); conditions: cited from earlier work
T1 sequence (P11387 1-765): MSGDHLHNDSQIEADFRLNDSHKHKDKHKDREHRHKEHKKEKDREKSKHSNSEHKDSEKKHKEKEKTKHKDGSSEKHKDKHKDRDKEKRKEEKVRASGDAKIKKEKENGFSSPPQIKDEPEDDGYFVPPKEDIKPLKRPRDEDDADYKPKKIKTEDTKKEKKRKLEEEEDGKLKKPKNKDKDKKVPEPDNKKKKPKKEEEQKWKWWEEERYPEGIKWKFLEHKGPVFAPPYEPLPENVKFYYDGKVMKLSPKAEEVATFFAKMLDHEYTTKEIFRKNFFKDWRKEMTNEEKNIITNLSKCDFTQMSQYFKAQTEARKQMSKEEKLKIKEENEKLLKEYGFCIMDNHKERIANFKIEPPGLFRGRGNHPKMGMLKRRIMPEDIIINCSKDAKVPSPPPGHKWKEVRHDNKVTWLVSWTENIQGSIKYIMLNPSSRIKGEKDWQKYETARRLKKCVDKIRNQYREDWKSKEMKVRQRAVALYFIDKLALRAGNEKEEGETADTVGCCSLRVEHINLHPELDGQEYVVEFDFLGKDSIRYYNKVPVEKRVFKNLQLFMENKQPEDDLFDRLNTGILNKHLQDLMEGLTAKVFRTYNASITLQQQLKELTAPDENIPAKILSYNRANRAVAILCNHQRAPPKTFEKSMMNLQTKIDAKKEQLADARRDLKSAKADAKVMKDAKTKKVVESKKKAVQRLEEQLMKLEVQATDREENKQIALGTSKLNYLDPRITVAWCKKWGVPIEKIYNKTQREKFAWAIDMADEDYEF

[3] = cited from earlier work

Structure (SMILES)	bioavailability [1]	Ratio absorbed in the lactone form [formula] [2]	Overall delivery to the bloodstream [formula], gastric retention relative to intravenous ([2]; vs IV)	Potency as inhibitor of topoisomerase I relative to irinotecan (topoisomerase I)	[formula] ratio of lactone AUC to total AUC, intravenous ([3]; irinotecan given intravenously)	[formula] overall delivery to the bloodstream, total AUC oral relative to intravenous ([3]; irinotecan given orally, conventional non-gastric retention, vs IV, lactone + carboxylate)	[formula] ratio absorbed in the lactone form (lactone AUC / total AUC), oral ([3]; irinotecan given orally, conventional non-gastric retention)
CCc1c2c(nc3ccc(OC(=O)N4CCC(N5CCCCC5)CC4)cc13)-c1cc3c(c(=O)n1C2)COC(=O)[C@]3(O)CC [Irinotecan]	12%	–	–	–	–	–	–
CCc1c2c(nc3ccc(O)cc13)-c1cc3c(c(=O)n1C2)COC(=O)[C@]3(O)CC [SN-38, 7-ethyl-10-hydroxycamptothecin]	–	0.9	0.4	approximately a thousand times more potent	0.50	0.16	0.73
